Patent US20130224223A1, “Compositions and Methods for Treating Neurological Disorders” (GEORGIA REGENTS UNIVERSITY, priority 2007, published 2013)

Test system: prefrontal cortical slices
Test: eIPSC recording in prefrontal cortical slices
Assay type: cell-based, mice
Method: Transverse prefrontal cortical slices (0.3 mm) were prepared from P28-P36 mice using a Vibroslice (Leica VT 10005) in the ice-cold solution, which contained 2.5 mM KCl, 1.25 mM NaH2PO4, 10 mM MgSO4, 0.5 mMCaCl2, 26 mM NaHCO3, 10 mM glucose, and 230 mM sucrose. Slices were allowed to recover for at least 2 hr in ACSF (1 hr at 34° C. followed by 1 hr at 22° C.) in a solution containing 126 mM NaCl, 2.5 mM KCl, 1.25 mM NaH2PO4, 2 mM MgSO4, 2 mM CaCl2, 26 mM NaHCO3, and 10 mM glucose. Slices were placed in the recording chamber and superfused (1.5 ml/min) with ACSF at 34° C. All solutions were saturated with 95% O2/5% CO2. Neurons were visualized with an IR-sensitive CCD camera with a 403 water-immersion lens (Zeiss, Axioskop2 Fsplus) and recorded using whole-cell voltage-clamp techniques (MultiClamp 7008 Amplifier, Digidata 1320A analog-to-digital converter) and pClamp 9.2 software (Axon Instruments). Glass pipettes were filled with the solution containing 125 mM Cs-gluconate, 10 mM CsCl, 1 mM MgCl2, 10 mM HEPES, 1 mM EGTA, 0.1 mM CaCl2, 10 mM sodium phosphocreatine, 4 mM Mg-ATP, 0.3 mM GTP, 0.2 mM leupeptin, and 5 mM lidocaine N-ethylchloride (QX314) (pH 7.2, with the osmolarity adjusted to 280 mOsm with sucrose). The resistance of pipettes was 2-3 MΩ For mIPSC recording, QX314 was omitted in the pipette filling solution, whereas […] was included in the superfusing solution. eIPSCs were generated with a two-concentric bipolar stimulating electrode ([…] pole separation; FHC, ME) positioned about […] from the neuron under recording. Single or paired pulses of 0.2 ms were delivered at 0.1 Hz and synchronized using a Mater-8 stimulator (A.M.P.I). The holding potential for both mIPSCs and eIPSCs was −65 mV. All experiments were done at 34° C. in the presence of 6-cyano-7-nitroquinoxaline-2,3-dione (CNQX, […]) and AP-5 ([…]) to block AMPA/NMDA receptors. Data were collected when series resistance fluctuated within 15% of initial values (8-15 MU), they were filtered at 2 kHz, and they were sampled at 10 kHz.

SMILES: COc1cc2ncnc(Nc3cccc(Cl)c3)c2cc1OC [AG1478]
- evoked IPSCs (eIPSCs) (substance alone, no other exogenous agent, AG1478/AG879 5 mM [sic]): decreased
- NRG1 potentiation of eIPSCs (substance given with exogenous NRG1 (5 nM)): prevented
